Test results as given in patent US20250382298A1, “NITROGEN-CONTAINING COMPOUND AND USE THEREOF” (SUZHOU GENHOUSE BIO CO., LTD., priority 2022, published 2025).
Where two headings read alike, the source gives them in different places.

How the values were obtained:
KIF18A = KIF18A (Homo sapiens (Human), UniProt Q8NI77); test: KIF18A enzymatic activity inhibition, ADP-Glo kit; type: biochemical; conditions: 4 nM KIF18A, 30 μM ATP
Method: In this experiment, an ADP-Glo kit was used to detect the inhibitory activity of the compounds against KIF18A. Each compound was prepared into a 10 mM stock solution with DMSO, which was then diluted at 1:5 to obtain 9 gradients with the initial final concentration set at 10 μM. Meanwhile, a control group and a blank group were also set up. The reaction buffer consisted of 15 mM Tris (pH 7.5), 10 mM MgCl2, and 0.01% Pluronic F-68. 4 nM KIF18A (1467) and the test compound were added to a 384-well plate and incubated at 37° C. for 20 mm. Then, 30 μM ATP was added to initiate the enzymatic reaction, and the plate was incubated at room temperature for 15 min. Finally, the ADP-Glo reagent was added to detect the luminescence intensity, where the luminescence intensity is directly proportional to the ADP content. Inhibition rate (%)=[…]. Sample signal is the value of the compound group, and DMSO signal is the value of the DMSO control group. Then, the inhibition rate at each concentration was calculated, and the IC50 was determined by fitting using the GraphPadPrism 7.0 software.

OVCAR3 cells [1] = test: Detection of cell proliferation activity by CCK8 method (OVCAR3); type: cell-based
Description: (§1) This assay can be used to examine the potency of compounds in inhibiting the proliferation of tumor cells (OVCAR3, HT-29, BT-549, HCT-116). A lower IC50 value indicates high potency of the compound as a KIF18A inhibitor in the following assay setup,
(§2) McCoy's 5A medium purchased from Sangon Biotech; CCK8 kit purchased from Beyotime; OVCAR3, HT-29, HCT-116, and BT-549 cells purchased from Shanghai Fuheng Biotechnology Co., Ltd.; multimode microplate reader (Thermo).
(§3) Cells at the logarithmic growth phase were taken, digested with a cell lysis buffer (trypsin), centrifuged, counted, and seeded into a 96-well plate at an appropriate cell density (BT549: 1500 cells/well in 1640 medium. HT-29 and HCT-116: 2000 cells/well in McCoy's 5A medium), with 180 μL per well, for a total of 60 wells. The surrounding wells were filled with an equal amount of PBS to prevent water evaporation from the edge wells. The next day after cell plating, the test compounds at different concentration gradients (with an initial final concentration of 10 μM, diluted in a 1:5 gradient to obtain 9 concentration gradients) were added to the wells. Three replicate wells were set up for each concentration point, and a corresponding DMSO negative control group was also set up. Detection: After 96 h of drug treatment, the test cell culture plate was removed from the incubator. All the liquid in the 96-well plate was aspirated, and 100 μL of medium containing 10% CCK8 solution was added to each well. The plate was then incubated at 37° C. for 2 h (the OD450 of the DMSO group reached 1.5 or more), and the absorbance at 450 nm was measured using a microplate reader
(§4) After the background value was subtracted from the measurement for each well, the inhibition rate was calculated. Inhibition Rate (%)=(1−Sample/Vehicle)×100. Sample is the luminescence value of the drug treatment group, and Vehicle is the luminescence value of the DMSO control group. A sigmoidal dose-survival rate curve was plotted using a non-linear regression model in the GraphPad Prism 7.0 software, and the IC50 values were calculated.

HT-29 cells [2] = test: Detection of cell proliferation activity by CCK8 method (HT-29); type: cell-based, human; conditions: CCK8, 96 h
Description: as §1, §2, §3, §4

HCT-116 cells [3] = test: Mitotic index analysis, pH3 expression in HCT-116 cells; type: cell-based; conditions: 24 h treatment
Method: (§5) HCT-116 and HT-29 cells at the logarithmic growth phase were taken, digested with a cell lysis buffer (trypsin), centrifuged, counted, and seeded into a 96-well plate at an appropriate cell density (20000 cells/well), with 100 μL per well. The surrounding wells were filled with an appropriate amount of PBS to prevent water evaporation. The next day, the cells were treated with the compounds at different concentrations (with a starting concentration of 10 μM, 3-fold diluted to obtain 9 concentration gradients). After 24 h, the medium was aspirated, and the cells were washed twice with 100 μL of PBS. The cells were then fixed with 4% paraformaldehyde and incubated at room temperature for 15 min. The fixative solution was discarded, and the cells were washed with PBS. Then, 150 μL of specialized blocking solution (containing 1% Triton-100) was added to each well for blocking at room temperature for 2 h, and the plate was washed with PBS to remove excess blocking solution. Anti-phistone H3 (pH3) was diluted at a ratio of 1:1000 with a blocking solution containing 0.033% Triton-100, and a blank control group was set up. Then, incubation was performed at 4° C. overnight. The next day, the plate was washed twice with 1×PBST. Anti-rabbit-IgG (H+L) (CST) and DRAQ5 (Thermofisher) were each diluted at an appropriate ratio with a blocking solution containing 0.033% Triton-100 (secondary antibody: 1:2000; DRAQ5: 1:10000). Then, incubation was performed at room temperature for 2 h. The plate was washed twice with 1×PBST and once with PBS. Fluorescence signals at 700 nm and 800 nm were detected using a Li—COR Odyssey two-color near-infrared laser imager. Calculation was performed as follows: pH3 expression (%)=(Cmpd dose/DMSO control)×100. Cmpd dose is the value of the drug treatment group, and DMSO control is the value of the DMSO control group. The EC50 values were determined by fitting using the GraphPad Prism 7.0 software.

HCT-116 cells [4] = test: Detection of cell proliferation activity by CCK8 method (HCT-116); type: cell-based; conditions: CCK8, 96 h
Description: as §1, §2, §3, §4

BT-549 cells = test: Detection of cell proliferation activity by CCK8 method (BT-549); type: cell-based; conditions: CCK8, 96 h
Description: as §1, §2, §3, §4

HT-29 cells [5] = test: Mitotic index analysis, pH3 expression in HT-29 cells; type: cell-based, human; conditions: Homo sapiens, 24 h treatment
Method: as §5

[6] = Pharmacokinetic test in mice; type: in vivo; conditions: BALB/c mice; for AUC / Cmax / half-life: mouse, plasma; for half-life: read-out: t½ (converted)
Method: In this example, the pharmacokinetic behavior of the compounds after intravenous injection (IV) and intragastric (PO) administration in BALB/c mice was tested.
On the day of administration, mice were weighed for actual body weight and the administration volume was calculated. Each compound was tested in two groups with 9 mice in each group; one group was subjected to administration by single intravenous injection, and the other group of mice was subjected to single intragastric administration. Whole blood samples were collected via the orbit at prescribed time points (0.25 h, 0.5 h, 1 h, 2 h, 4 h, 8 h, and 24 h after administration). After blood sample collection, the samples were immediately transferred to labeled commercial sample tubes containing K2-EDTA (0.85-1.15 mg), followed by centrifugation (3200×g, 4° C., 10 min) and plasma collection. The plasma was transferred to a pre-cooled centrifuge tube, frozen in dry ice, and then stored in an ultra-low temperature freezer at −60° C. or lower until the LC-MS/MS analysis.
Plasma concentrations were determined by the LC-MS/MS method. Plasma drug concentration data for the compounds were processed using a non-compartmental model in the WinNonlin Version 6.3 (Pharsight, Mountain View, CA) pharmacokinetic software. The relevant pharmacokinetic parameters were calculated by a linear-log trapezoidal method.

OVCAR3 cells [7] = test: Detection of OVCAR3 cell proliferation activity by CTG method; type: cell-based; conditions: Homo sapiens, OVCAR-3, 168 h, CellTiter-Glo, 7 days
Description: as §1
1640 medium; fetal bovine serum; penicillin/streptomycin antibiotics purchased from Wisent; CellTiter-Glo (chemiluminescence detection reagent for cell viability) reagent purchased from Promega; OVCAR3 cell line purchased from Nanjing Cobioer Biosciences Co., Ltd.; Nivo multimode microplate reader (PerkinElmer),
OVCAR3 cells were seeded into a white 96-well plate, with 80 μL of cell suspension containing 2000 OVCAR3 cells added to each well. The cell plate was incubated in a CO2 incubator overnight.
A test compound was 5-fold diluted to the 8th concentration (i.e., from 2 mM to […]) using a multichannel pipette, with duplicate wells set up. To an intermediate plate was added 78 μL of medium, and the serially diluted compound was transferred to the corresponding wells of the intermediate plate at 2 μL/well. The mixture was mixed well and then transferred to the cell plate at 20 μL/well. The concentration of the compound transferred to the cell plate ranged from 10 μM to 0.026 nM. The cell plate was incubated in a CO2 incubator for 7 days. Another cell plate was prepared and read for signal values on the day of compound addition, and these values were used as the maximum values (the Max value in the equation below) in data analysis. To this cell plate was added the chemiluminescence detection reagent for cell viability at 25 μL/well, and the luminescence signals were stabilized by incubation at room temperature for 10 min. Readings were taken using the multimode microplate reader.
To the cell plate was added the chemiluminescence detection reagent for cell viability at 25 μL/well, and the luminescence signals were stabilized by incubation at room temperature for 10 mm. Readings were taken using the multimode microplate reader, […]

[8] = Homo sapiens, OVCAR-3, CCK8, 96 h

KIF18A, sequence (Q8NI77 1-467): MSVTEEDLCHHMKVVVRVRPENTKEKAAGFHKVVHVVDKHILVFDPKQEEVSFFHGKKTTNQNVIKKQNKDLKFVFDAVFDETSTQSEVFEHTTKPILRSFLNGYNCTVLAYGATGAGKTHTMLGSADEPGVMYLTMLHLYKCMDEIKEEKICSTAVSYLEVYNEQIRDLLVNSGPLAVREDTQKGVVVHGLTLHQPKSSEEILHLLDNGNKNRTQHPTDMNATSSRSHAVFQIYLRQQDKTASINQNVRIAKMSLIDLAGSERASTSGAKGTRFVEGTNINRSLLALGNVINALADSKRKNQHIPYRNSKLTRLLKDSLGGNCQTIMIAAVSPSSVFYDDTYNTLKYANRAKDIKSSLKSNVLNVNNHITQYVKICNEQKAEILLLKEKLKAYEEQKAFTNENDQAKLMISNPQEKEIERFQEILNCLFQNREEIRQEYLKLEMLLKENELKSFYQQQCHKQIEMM

O=C(Nc1cn2ccnc2c(N2CCC(F)(F)CC2)n1)c1cnc(NS(=O)(=O)CCO)cc1N1CCC2(CC1)CC2 [Compound 38]
IC50 (KIF18A): 7.6 nM | IC50 (OVCAR3 cells [1]; CCK8, 96 h): 11.9 nM | IC50 (HT-29 cells [2]): 132 nM | EC50 (HCT-116 cells [3]): > 10000 nM | IC50 (HCT-116 cells [4]): > 10000 nM | IC50 (BT-549 cells): 31.9 nM

CS(=O)(=O)Nc1ccc(C(=O)Nc2cn3cnnc3c(N3CCC(F)(F)CC3)n2)c(N2CC3CCC(C3)C2)c1 [Compound 65]
EC50 (HT-29 cells [5]): 20 nM | IC50 (KIF18A): 19.2 nM | IC50 (OVCAR3 cells [1]; [8]): 14.6 nM | IC50 (HT-29 cells [2]; Homo sapiens): 40.4 nM | EC50 (HCT-116 cells [3]; Homo sapiens): > 10000 nM | IC50 (HCT-116 cells [4]; Homo sapiens): > 10000 nM | F ([6]; PO @5mpk): 82% | AUC ([6]; 5 mg/kg, PO @5mpk): 19.9 µM·h | Cmax ([6]; 5 mg/kg, PO @5mpk): 3.56 µM | half-life ([6]; 5 mg/kg, PO @5mpk): 3.9 h | IC50 (BT-549 cells; Homo sapiens): 53.2 nM

Cn1ccc2cc(NC(=O)c3ccc(NS(=O)(=O)CCO)cc3N3CCC4(CC3)CC4)nc(N3CCC(F)(F)CC3)c21 [Compound 18]
EC50 (HT-29 cells [5]): 87 nM | IC50 (OVCAR3 cells [7]): 93 nM | IC50 (KIF18A): 93.2 nM | IC50 (HT-29 cells [2]; Homo sapiens): 336 nM | EC50 (HCT-116 cells [3]; Homo sapiens): > 10000 nM | IC50 (HCT-116 cells [4]; Homo sapiens): > 10000 nM | IC50 (BT-549 cells; Homo sapiens): 247 nM

CS(=O)(=O)Nc1ccc(C(=O)Nc2cn3c(F)cnc3c(N3CCC(F)(F)CC3)n2)c(N2CC3CCC(C3)C2)c1 [Compound 52]
EC50 (HT-29 cells [5]): 42.9 nM | IC50 (KIF18A): 22 nM | IC50 (OVCAR3 cells [1]; [8]): 52.9 nM | IC50 (HT-29 cells [2]; Homo sapiens): 75.2 nM | EC50 (HCT-116 cells [3]; Homo sapiens): > 10000 nM | IC50 (HCT-116 cells [4]; Homo sapiens): > 10000 nM | F ([6]; PO @30mpk): 107% | AUC ([6]; 30 mg/kg, PO @30mpk): 269 µM·h | Cmax ([6]; 30 mg/kg, PO @30mpk): 14.1 µM | half-life ([6]; 30 mg/kg, PO @30mpk): 39 h | IC50 (BT-549 cells; Homo sapiens): 209 nM

CS(=O)(=O)Nc1ccc(C(=O)Nc2cc3cn[nH]c3c(N3CCC(F)(F)CC3)n2)c(N2CC3CCC(C3)C2)c1 [Compound 69]
EC50 (HT-29 cells [5]): 4.8 nM | IC50 (KIF18A): 26 nM | IC50 (OVCAR3 cells [1]; [8]): 6.5 nM | IC50 (HT-29 cells [2]; Homo sapiens): 11.5 nM | EC50 (HCT-116 cells [3]; Homo sapiens): > 10000 nM | IC50 (HCT-116 cells [4]; Homo sapiens): > 10000 nM | F ([6]; PO @30mpk): 385% | AUC ([6]; 30 mg/kg, PO @30mpk): 221 µM·h | Cmax ([6]; 30 mg/kg, PO @30mpk): 20.5 µM | half-life ([6]; 30 mg/kg, PO @30mpk): 8.2 h | IC50 (BT-549 cells; Homo sapiens): 39.6 nM
